Measured values reported in ChEMBL document CHEMBL1149732, “New bioactive metabolites from a freshwater isolate of the fungus Kirschsteiniothelia sp” (1992).
≈ marks a conversion by molar mass, not a printed value. Calls of active or inactive are those of the source. The calls are words filed in the database; no cut-off is given here.

Legend:
Bacillus subtilis [1] = assay: Antimicrobial activity against Bacillus subtilis at 5 ug/disk by disk assay; assay type: functional, organism-based
Staphylococcus aureus [2] = assay: Antimicrobial activity against Staphylococcus aureus at 1 ug/disk by disk assay; assay type: functional, organism-based
Staphylococcus aureus [3] = assay: Antimicrobial activity against Staphylococcus aureus at 10 ug/disk by disk assay; assay type: functional, organism-based
HT-29 = assay: Cytotoxicity against human HT-29 cells; assay type: functional; conditions: read-out: ED50 (the source's name)
MCF7 = assay: Cytotoxicity against human MCF7 cells; assay type: functional; conditions: read-out: ED50 (the source's name)
Bacillus subtilis [4] = assay: Antimicrobial activity against Bacillus subtilis at 1 ug/disk by disk assay; assay type: functional, organism-based
A549 = assay: Cytotoxicity against human A549 cells; assay type: functional; conditions: read-out: ED50 (the source's name)

Structure (SMILES): Cc1cc(O)c(Cl)c(Oc2c(Cl)c(C)cc(O)c2Cl)c1
- Activity (Bacillus subtilis [1]): Active

Structure (SMILES): Cc1cc(O)c(Cl)c(Oc2c(Cl)c(C)cc(O)c2Cl)c1Cl
- Activity (Staphylococcus aureus [2]): Active

Structure (SMILES): COC1=CC(=O)c2c(cc(OC)c(C(C)C3=C(O)C(=O)c4cc(O)c(C(C)=O)c(O)c4C3=O)c2O)C1=O (configuration not stated) [KIRSCHSTEININ]
- Activity (Staphylococcus aureus [3]): Active
- EC50 (HT-29): 2.7 µg/mL (≈ 5.31 µM)
- EC50 (MCF7): 5.2 µg/mL (≈ 10.2 µM)
- Activity (Bacillus subtilis [4]): Active
- EC50 (A549): 3.1 µg/mL (≈ 6.1 µM)
